Data: ChEMBL document CHEMBL1201862, “PubChem BioAssay data set” (2004)
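Briefly, cells in 96-well plates were exposed to five compound concentrations for 48 h, and endpoints were estimated by linear interpolation. At the GI50, growth is halved.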 Activity calls are given as the source filed them. No stated cut-off is given here; in the data, active = GI50 up to about 1.1 µM and inactive = higher.

How the values were obtained:
Test in all cases: NCI tumour cell line growth inhibition, 48 h
HL-60 = system: HL-60
SF-295 = system: SF-295
CAKI-1 = system: CAKI-1
COLO 205 = system: COLO 205
SF-539 = system: SF-539
SNB-19 = system: SNB-19
CCRF-CEM = system: CCRF-CEM
HOP-92 = system: HOP-92
TK-10 = system: TK-10
HCT-15 = system: HCT-15
HOP-62 = system: HOP-62
OVCAR-4 = system: OVCAR-4
K562 = system: K562
HCC 2998 = system: HCC 2998
EKVX = system: EKVX
HCT-116 = system: HCT-116
A549 = system: A549
NCI-H23 = system: NCI-H23

Structure (SMILES) | GI50 (HL-60) | GI50 (SF-295) | GI50 (CAKI-1) | GI50 (COLO 205) | GI50 (SF-539) | GI50 (SNB-19) | GI50 (CCRF-CEM) | GI50 (HOP-92) | GI50 (TK-10) | GI50 (HCT-15) [µM] | GI50 (HOP-62) | GI50 (OVCAR-4) | GI50 (K562) | GI50 (HCC 2998) | GI50 (EKVX) | GI50 (HCT-116) | GI50 (A549) | GI50 (NCI-H23)
O=C1CCCCC1S(=O)(=O)c1ccccc1 (stereo not drawn) | > 100 µM (inactive) | > 100 µM (inactive) | > 100 µM (inactive) | > 100 µM (inactive) | > 100 µM (inactive) | > 100 µM (inactive) | > 100 µM (inactive) | > 100 µM (inactive) | > 100 µM (inactive) | > 100 | > 100 µM (inactive) | > 100 µM (inactive) | > 100 µM (inactive) | > 100 µM (inactive) | > 100 µM (inactive) | > 100 µM (inactive) | > 100 µM (inactive) | > 100 µM (inactive)
Cc1ccc(S(=O)(=O)NC(=O)NC23CC4CC(CC(F)(C4)C2)C3)cc1 | > 100 µM (inactive) | – | – | > 100 µM (inactive) | > 100 µM (inactive) | > 100 µM (inactive) | > 100 µM (inactive) | > 100 µM (inactive) | > 100 µM (inactive) | – | > 100 µM (inactive) | – | > 100 µM (inactive) | > 100 µM (inactive) | > 100 µM (inactive) | > 100 µM (inactive) | > 100 µM (inactive) | > 100 µM (inactive)
O=C1[C@H]2ON(c3ccccc3)C(c3ccc(Cl)cc3Cl)[C@H]2C(=O)N1c1ccc(Cc2ccc(N3C(=O)[C@@H]4ON(c5ccccc5)C(c5ccc(Cl)cc5Cl)[C@@H]4C3=O)cc2)cc1 (stereo partly drawn) | > 100 µM (inactive) | > 100 µM (inactive) | > 100 µM (inactive) | > 100 µM (inactive) | > 100 µM (inactive) | > 100 µM (inactive) | > 100 µM (inactive) | > 100 µM (inactive) | > 100 µM (inactive) | > 100 | > 100 µM (inactive) | > 100 µM (inactive) | > 100 µM (inactive) | > 100 µM (inactive) | > 100 µM (inactive) | > 100 µM (inactive) | > 100 µM (inactive) | > 100 µM (inactive)
CCCCCCCCCCSC(=O)NC | 19 µM (inactive) | 50.1 µM (inactive) | 25.9 µM (inactive) | 34.9 µM (inactive) | 35.3 µM (inactive) | 28.8 µM (inactive) | 18.9 µM (inactive) | 18.6 µM (inactive) | 37.9 µM (inactive) | 22.6 | – | 36.7 µM (inactive) | 25.8 µM (inactive) | 47.2 µM (inactive) | 27.2 µM (inactive) | – | 37.8 µM (inactive) | 30.5 µM (inactive)
CC(=O)COC(=O)CC(C)=O | > 100 µM (inactive) | > 100 µM (inactive) | > 100 µM (inactive) | > 100 µM (inactive) | > 100 µM (inactive) | > 100 µM (inactive) | > 100 µM (inactive) | – | > 100 µM (inactive) | > 100 | > 100 µM (inactive) | > 100 µM (inactive) | > 100 µM (inactive) | > 100 µM (inactive) | > 100 µM (inactive) | > 100 µM (inactive) | > 100 µM (inactive) | > 100 µM (inactive)
CSc1n[n+]2c(s1)SCCC2 | > 100 µM (inactive) | > 100 µM (inactive) | 31.9 µM (inactive) | 20.2 µM (inactive) | > 100 µM (inactive) | > 100 µM (inactive) | > 100 µM (inactive) | > 100 µM (inactive) | > 100 µM (inactive) | – | 95.5 µM (inactive) | > 100 µM (inactive) | > 100 µM (inactive) | > 100 µM (inactive) | – | > 100 µM (inactive) | 20.5 µM (inactive) | > 100 µM (inactive)
CN(CCc1ccccn1)/[N+]([O-])=N/O.CNCCc1ccccn1 | > 100 µM (inactive) | > 100 µM (inactive) | > 100 µM (inactive) | > 100 µM (inactive) | > 100 µM (inactive) | > 100 µM (inactive) | > 100 µM (inactive) | > 100 µM (inactive) | – | > 100 | > 100 µM (inactive) | > 100 µM (inactive) | > 100 µM (inactive) | > 100 µM (inactive) | > 100 µM (inactive) | > 100 µM (inactive) | > 100 µM (inactive) | > 100 µM (inactive)
Cc1cc2oc(=O)[nH]c(=S)c2c(C)c1C | > 100 µM (inactive) | > 100 µM (inactive) | – | > 100 µM (inactive) | > 100 µM (inactive) | > 100 µM (inactive) | > 100 µM (inactive) | > 100 µM (inactive) | > 100 µM (inactive) | > 100 | > 100 µM (inactive) | 45.2 µM (inactive) | > 100 µM (inactive) | > 100 µM (inactive) | 48.2 µM (inactive) | > 100 µM (inactive) | > 100 µM (inactive) | > 100 µM (inactive)
COc1cc2c(cc1OC)[C@H]1C(COC(=O)Nc3ccccc3)CN1CC2 (stereo partly drawn) | > 100 µM (inactive) | > 100 µM (inactive) | > 100 µM (inactive) | > 100 µM (inactive) | > 100 µM (inactive) | > 100 µM (inactive) | > 100 µM (inactive) | 69.3 µM (inactive) | > 100 µM (inactive) | > 100 | > 100 µM (inactive) | > 100 µM (inactive) | > 100 µM (inactive) | 67.6 µM (inactive) | – | > 100 µM (inactive) | > 100 µM (inactive) | > 100 µM (inactive)
CCCCCCCCCCCCCCCCCC(=O)O[C@H](COC(=O)CCCCCCCCCCC)COC(=O)CCCCCCCCCCCCCCC | > 100 µM (inactive) | > 100 µM (inactive) | > 100 µM (inactive) | > 100 µM (inactive) | – | > 100 µM (inactive) | > 100 µM (inactive) | > 100 µM (inactive) | > 100 µM (inactive) | > 100 | > 100 µM (inactive) | > 100 µM (inactive) | > 100 µM (inactive) | > 100 µM (inactive) | – | > 100 µM (inactive) | > 100 µM (inactive) | > 100 µM (inactive)
CCCCCCCCCCCCCCCCOCC(CN(C)CCN(C)C)OCCCCCCCCCCCCCCCC (stereo not drawn) | > 100 µM (inactive) | > 100 µM (inactive) | > 100 µM (inactive) | > 100 µM (inactive) | – | > 100 µM (inactive) | > 100 µM (inactive) | > 100 µM (inactive) | > 100 µM (inactive) | > 100 | > 100 µM (inactive) | > 100 µM (inactive) | > 100 µM (inactive) | > 100 µM (inactive) | > 100 µM (inactive) | > 100 µM (inactive) | > 100 µM (inactive) | > 100 µM (inactive)
COc1cc(CC2c3cc(OC)c(OC)cc3CCN2C)ccc1O (stereo not drawn) | – | > 100 µM (inactive) | > 100 µM (inactive) | – | > 100 µM (inactive) | > 100 µM (inactive) | > 100 µM (inactive) | – | > 100 µM (inactive) | > 100 | > 100 µM (inactive) | > 100 µM (inactive) | > 100 µM (inactive) | > 100 µM (inactive) | > 100 µM (inactive) | > 100 µM (inactive) | > 100 µM (inactive) | > 100 µM (inactive)
